In ChEMBL document CHEMBL3808333, “Design, synthesis and anticonvulsant activity of new hybrid compounds derived from N-phenyl-2-(2,5-dioxopyrrolidin-1-yl)-propanamides and -butanamides” (Bioorg Med Chem, 2016):
Calls of active or inactive are those of the source. The rule behind the calls is not given here.

Tests used:
Mus musculus [1] = test: Anticonvulsant activity in albino Swiss mouse assessed as protection against maximal electroshock-induced seizures pretreated for 0.5 hrs at 100 mg/kg, ip by maximal electroshock seizure test; type: functional
Mus musculus [2] = test: Anticonvulsant activity in albino Swiss mouse assessed as protection against maximal electroshock-induced seizures pretreated for 2 hrs at 100 mg/kg, ip by maximal electroshock seizure test; type: functional, organism-based
Rattus norvegicus [3] = species: Rattus norvegicus; test: Displacement of [3H]Batrachotoxinin from voltage-sensitive sodium channel site 2 in rat cerebral cortex synaptoneurosomes at 500 uM measured after 60 mins by scintillation counting method; type: tissue-based
Rattus norvegicus [4] = species: Rattus norvegicus; test: Displacement of [125I]omega-Conotoxin GVIA from N-type calcium channel in rat cerebral cortex synaptoneurosomes at 100 uM measured after 30 mins by scintillation counting method; type: tissue-based
Rattus norvegicus [5] = species: Rattus norvegicus; test: Displacement of [125I]omega-Conotoxin GVIA from N-type calcium channel in rat cerebral cortex synaptoneurosomes at 200 uM measured after 30 mins by scintillation counting method; type: tissue-based
Rattus norvegicus [6] = species: Rattus norvegicus; test: Displacement of [3H]diltiazem from L-type calcium channel diltiazem binding site in rat cerebral cortex synaptoneurosomes at 100 uM measured after 120 mins by scintillation counting method; type: tissue-based
Rattus norvegicus [7] = species: Rattus norvegicus; test: Displacement of [3H]diltiazem from L-type calcium channel diltiazem binding site in rat cerebral cortex synaptoneurosomes at 200 uM measured after 120 mins by scintillation counting method; type: tissue-based
Rattus norvegicus [8] = species: Rattus norvegicus; test: Displacement of [3H]nitrendipine from L-type calcium channel dihydropyridine site in rat cerebral cortex synaptoneurosomes at 100 uM measured after 90 mins by scintillation counting method; type: tissue-based
Rattus norvegicus [9] = species: Rattus norvegicus; test: Displacement of [3H]nitrendipine from L-type calcium channel dihydropyridine site in rat cerebral cortex synaptoneurosomes at 200 uM measured after 90 mins by scintillation counting method; type: tissue-based
Rattus norvegicus [10] = species: Rattus norvegicus; test: Displacement of [3H]D888 from L-type calcium channel verapamil binding site in rat cerebral cortex synaptoneurosomes at 100 uM measured after 120 mins by scintillation counting method; type: tissue-based
Rattus norvegicus [11] = species: Rattus norvegicus; test: Displacement of [3H]D888 from L-type calcium channel verapamil binding site in rat cerebral cortex synaptoneurosomes at 200 uM measured after 120 mins by scintillation counting method; type: tissue-based
Mus musculus [12] = test: Anticonvulsant activity against albino Swiss mouse seizure model assessed as time to peak effect at 100 mg/kg, ip; type: functional
Mus musculus [13] = test: Anticonvulsant activity in albino Swiss mouse assessed as reduction in clonic seizures pretreated for 0.5 hrs at 100 mg/kg, ip measured after 30 mins by subcutaneous pentylenetetrazole seizure test; type: functional; set-up: scale not given: the % may be the effect or the level left
Mus musculus [14] = test: Acute neurotoxicity in albino Swiss mouse pretreated for 0.5 hrs at 100 mg/kg, ip by rotorod test; type: toxicity, organism-based; settings: in vivo
Mus musculus [15] = test: Anticonvulsant activity in albino Swiss mouse assessed as protection against electrically-induced seizure pretreated for 0.5 hrs at 100 mg/kg, ip by 6Hz psychomotor seizure test; type: functional
Mus musculus [16] = test: Anticonvulsant activity in albino Swiss mouse assessed as protection against electrically-induced seizure pretreated for 2 hrs at 100 mg/kg, ip by 6Hz psychomotor seizure test; type: functional, organism-based
Mus musculus [17] = species: Mus musculus; test: Anticonvulsant activity in albino Swiss mouse by maximal electroshock seizure test; type: functional
Mus musculus [18] = test: Anticonvulsant activity in albino Swiss mouse measured after 30 mins by subcutaneous pentylenetetrazole seizure test; type: functional; settings: sc, 0.5 h
Mus musculus [19] = species: Mus musculus; test: Anticonvulsant activity in albino Swiss mouse assessed as protection against electrically-induced seizure by 6Hz psychomotor seizure test; type: functional
[20] = Acute neurotoxicity in albino Swiss mouse pretreated for 2 hrs by rotorod test; type: toxicity, organism-based; settings: in vivo
[21] = Protective index, ratio of TD50 for acute neurotoxicity in albino Swiss mouse to ED50 for anticonvulsant activity in albino Swiss mouse by maximal electroshock seizure test; type: toxicity, organism-based; settings: in vivo, read-out: Ratio TD50/ED50
[22] = Protective index, ratio of TD50 for acute neurotoxicity in albino Swiss mouse to ED50 for anticonvulsant activity in albino Swiss mouse by subcutaneous pentylenetetrazole seizure test; type: toxicity, organism-based; settings: in vivo, read-out: Ratio TD50/ED50
[23] = Protective index, ratio of TD50 for acute neurotoxicity in albino Swiss mouse to ED50 for anticonvulsant activity in albino Swiss mouse by 6Hz psychomotor seizure test; type: toxicity, organism-based; settings: in vivo, read-out: Ratio TD50/ED50
Mus musculus [24] = test: Anticonvulsant activity in albino Swiss mouse assessed as reduction in clonic seizures pretreated for 2 hrs at 100 mg/kg, ip measured after 30 mins by subcutaneous pentylenetetrazole seizure test; type: functional, organism-based
Mus musculus [25] = test: Acute neurotoxicity in albino Swiss mouse pretreated for 2 hrs at 100 mg/kg, ip by rotorod test; type: toxicity, organism-based; settings: in vivo
Rattus norvegicus [26] = species: Rattus norvegicus; test: Displacement of [3H]Batrachotoxinin from voltage-sensitive sodium channel site 2 in rat cerebral cortex synaptoneurosomes at 100 uM measured after 60 mins by scintillation counting method; type: tissue-based
Rattus norvegicus [27] = species: Rattus norvegicus; test: Displacement of [3H]Batrachotoxinin from voltage-sensitive sodium channel site 2 in rat cerebral cortex synaptoneurosomes at 200 uM measured after 60 mins by scintillation counting method; type: tissue-based

CC1CC(=O)N(C(C)C(=O)Nc2ccc(F)cc2)C1=O (stereo not given)
Activity (Mus musculus [1]): inactive
Activity (Mus musculus [2]): inactive

NC(=O)N1c2ccccc2C=Cc2ccccc21
inhibition (Rattus norvegicus [3]): 33.6%
inhibition (Rattus norvegicus [4]): -2.9%
inhibition (Rattus norvegicus [5]): 1.9%
inhibition (Rattus norvegicus [6]): 1.1%
inhibition (Rattus norvegicus [7]): 7.3%
inhibition (Rattus norvegicus [8]): 2.6%
inhibition (Rattus norvegicus [9]): 3.6%
inhibition (Rattus norvegicus [10]): 8.8%
inhibition (Rattus norvegicus [11]): 7.5%

CCC(C(=O)Nc1ccc(Cl)cc1)N1C(=O)CCC1=O (stereo not given)
Activity (Mus musculus [1]): inactive
Activity (Mus musculus [2]): inactive

CCCC(CCC)C(=O)O [VALPROIC ACID]
Time (Mus musculus [12]): 0.5 h

CC(C(=O)Nc1ccc(Cl)cc1)N1C(=O)CCC1=O (stereo not given)
Activity (Mus musculus [1]): inactive

CC1CC(=O)N(C(C)C(=O)Nc2ccc(C(F)(F)F)cc2)C1=O (stereo not given)
Activity (Mus musculus [1]): inactive
Activity (Mus musculus [2]): inactive

CCC(C(=O)Nc1ccc(F)cc1)N1C(=O)CCC1=O (stereo not given)
Activity (Mus musculus [1]): inactive
Activity (Mus musculus [2]): inactive

CC(C(=O)Nc1ccc(C(F)(F)F)cc1)N1C(=O)CCC1=O (stereo not given)
Activity (Mus musculus [2]): inactive

CC(C(=O)Nc1ccc(F)cc1)N1C(=O)CCC1=O (stereo not given)
Activity (Mus musculus [1]): inactive
Activity (Mus musculus [2]): inactive

CC1CC(=O)N(C(C)C(=O)Nc2cccc(C(F)(F)F)c2)C1=O (stereo not given)
Activity (Mus musculus [1]): inactive
Activity (Mus musculus [2]): inactive

CC(C(=O)Nc1cccc(Cl)c1)N1C(=O)CCC1=O (stereo not given)
Activity (Mus musculus [1]): 75%
Activity (Mus musculus [2]): inactive
Activity (Mus musculus [13]): 75%
Activity (Mus musculus [14]): 50%
Activity (Mus musculus [15]): 75%
Activity (Mus musculus [16]): inactive
Time (Mus musculus [12]): 0.5 h
ED50 (Mus musculus [17]): 105 mg/kg
ED50 (Mus musculus [18]): 87.7 mg/kg
ED50 (Mus musculus [19]): 74.5 mg/kg
TD50 at 2 h [20]: > 500 mg/kg
selectivity ratio [21]: > 4.8
selectivity ratio [22]: > 5.7
selectivity ratio [23]: > 6.7

CCC(C(=O)Nc1ccccc1)N1C(=O)CCC1=O (stereo not given)
Activity (Mus musculus [1]): 75%
Activity (Mus musculus [13]): 75%
Activity (Mus musculus [24]): inactive
Activity (Mus musculus [14]): Non-toxic
Activity (Mus musculus [25]): Non-toxic
Activity (Mus musculus [15]): Active
Activity (Mus musculus [16]): inactive
Time (Mus musculus [12]): 0.5 h
ED50 (Mus musculus [17]): 116 mg/kg
ED50 (Mus musculus [18]): 75.4 mg/kg
ED50 (Mus musculus [19]): 69.3 mg/kg
TD50 at 2 h [20]: 398 mg/kg
selectivity ratio [21]: 3.4
selectivity ratio [22]: 5.3
selectivity ratio [23]: 5.7

CC(C(=O)Nc1cccc(F)c1)N1C(=O)CCC1=O (stereo not given)
Activity (Mus musculus [2]): inactive

CC1CC(=O)N(C(C)C(=O)Nc2cccc(Cl)c2)C1=O (stereo not given)
Activity (Mus musculus [1]): 75%
Activity (Mus musculus [13]): 75%
Activity (Mus musculus [24]): inactive
Activity (Mus musculus [14]): Non-toxic
Activity (Mus musculus [25]): Non-toxic
Activity (Mus musculus [15]): 75%
Time (Mus musculus [12]): 0.5 h
ED50 (Mus musculus [17]): 80.6 mg/kg
ED50 (Mus musculus [18]): 58.4 mg/kg
ED50 (Mus musculus [19]): 88.2 mg/kg
TD50 at 2 h [20]: 279 mg/kg
selectivity ratio [21]: 3.5
selectivity ratio [22]: 4.8
selectivity ratio [23]: 3.2

CCC1(C)CC(=O)NC1=O (stereo not given) [ETHOSUXIMIDE]
Time (Mus musculus [12]): 0.5 h
ED50 (Mus musculus [17]): > 500 mg/kg
ED50 (Mus musculus [18]): 148 mg/kg
ED50 (Mus musculus [19]): > 200 mg/kg
selectivity ratio [22]: 4.9

COC[C@@H](NC(C)=O)C(=O)NCc1ccccc1 [LACOSAMIDE]
Time (Mus musculus [12]): 0.5 h
ED50 (Mus musculus [17]): 9.4 mg/kg
ED50 (Mus musculus [18]): > 500 mg/kg
ED50 (Mus musculus [19]): 6.4 mg/kg
selectivity ratio [23]: 5.3

CC(C(=O)Nc1ccccc1)N1C(=O)CCC1=O (racemic)
Activity (Mus musculus [1]): 50%
Activity (Mus musculus [13]): Active
Activity (Mus musculus [24]): inactive
Activity (Mus musculus [15]): Active
Time (Mus musculus [12]): 0.5 h
ED50 (Mus musculus [17]): 96.9 mg/kg
ED50 (Mus musculus [18]): 75.4 mg/kg
ED50 (Mus musculus [19]): 44.3 mg/kg
TD50 at 2 h [20]: 336 mg/kg
selectivity ratio [21]: 3.5
selectivity ratio [22]: 4.4
selectivity ratio [23]: 7.6
inhibition (Rattus norvegicus [26]): 26.4%
inhibition (Rattus norvegicus [27]): 55.2%
inhibition (Rattus norvegicus [4]): -6.5%
inhibition (Rattus norvegicus [5]): 1.3%
inhibition (Rattus norvegicus [6]): 10.8%
inhibition (Rattus norvegicus [7]): 43.7%
inhibition (Rattus norvegicus [8]): -7.7%
inhibition (Rattus norvegicus [9]): 2.9%
inhibition (Rattus norvegicus [10]): -0.8%
inhibition (Rattus norvegicus [11]): -3.2%

CC1CC(=O)N(C(C)C(=O)Nc2ccc(Cl)cc2)C1=O (stereo not given)
Activity (Mus musculus [2]): inactive

CC(C(=O)Nc1cccc(C(F)(F)F)c1)N1C(=O)CCC1=O (stereo not given)
Activity (Mus musculus [1]): inactive

CCC(C(=O)Nc1ccc(C(F)(F)F)cc1)N1C(=O)CCC1=O (stereo not given)
Activity (Mus musculus [1]): inactive
Activity (Mus musculus [2]): inactive

CCC(C(=O)Nc1cccc(F)c1)N1C(=O)CCC1=O (stereo not given)
Activity (Mus musculus [1]): 75%
Activity (Mus musculus [2]): inactive
Activity (Mus musculus [25]): Non-toxic
Activity (Mus musculus [15]): Active
Activity (Mus musculus [16]): inactive
Time (Mus musculus [12]): 0.5 h
ED50 (Mus musculus [17]): 121 mg/kg
ED50 (Mus musculus [19]): 41.4 mg/kg
TD50 at 2 h [20]: 346 mg/kg
selectivity ratio [21]: 2.9
selectivity ratio [23]: 8.4

CCC(C(=O)Nc1cccc(C(F)(F)F)c1)N1C(=O)CCC1=O (stereo not given)
Activity (Mus musculus [1]): inactive
Activity (Mus musculus [2]): inactive

CCC(C(=O)Nc1cccc(Cl)c1)N1C(=O)CCC1=O (stereo not given)
Activity (Mus musculus [1]): 75%
Activity (Mus musculus [2]): inactive
Activity (Mus musculus [13]): 50%
Activity (Mus musculus [25]): Non-toxic
Activity (Mus musculus [15]): 75%
Activity (Mus musculus [16]): inactive
Time (Mus musculus [12]): 0.5 h
ED50 (Mus musculus [17]): > 130 mg/kg
ED50 (Mus musculus [18]): > 130 mg/kg
ED50 (Mus musculus [19]): 43.4 mg/kg
TD50 at 2 h [20]: > 500 mg/kg
selectivity ratio [23]: > 11.5

CC1CC(=O)N(C(C)C(=O)Nc2ccccc2)C1=O (stereo not given)
Activity (Mus musculus [2]): inactive

CC[C@@H](C(N)=O)N1CCCC1=O
Time (Mus musculus [12]): 1 h
ED50 (Mus musculus [17]): > 500 mg/kg
ED50 (Mus musculus [18]): > 500 mg/kg
TD50 at 2 h [20]: > 500 mg/kg

CC1CC(=O)N(C(C)C(=O)Nc2cccc(F)c2)C1=O (stereo not given)
Activity (Mus musculus [2]): inactive
